Experimental data: patent US20130053430A1, “MODULATION OF CETP EXPRESSION” (Isis Pharmaceuticals, Inc., priority 2010, published 2013)
e = 2'-O-(2-methoxyethyl) (MOE); d = 2'-deoxy (DNA)

Experiments:
CETP protein = test: Plasma CETP protein by ELISA, dose response (Example 9); type: in vivo, human; details: huCETP transgenic mice, Western diet, s.c. 6 weeks
Experimental: (§1) Another group received subcutaneous injections of control oligonucleotide ISIS 141923 at a dose of 50 mg/kg/week for 6 weeks. One group of mice received subcutaneous injections of PBS for 6 weeks. The PBS-injected group served as the control group to which treatment groups were compared.
Plasma CETP protein levels were measured by ELISA (Alpco). The results are expressed as percent inhibition of CETP protein, relative to the PBS control.

[1] = Organ weights (Example 6); type: in vivo, mice; details: 50 mg/kg s.c. twice per week for 6 weeks, end of study
Text: The normal chow-fed mice were divided into three treatment groups. The cholesterol-enriched chow-fed mice were divided into three treatment groups. […] One chow-fed group and one cholesterol-enriched chow-fed group received subcutaneous injections of saline twice weekly for 6 weeks. The saline-injected groups served as the control groups to which the corresponding oligonucleotide-treated groups were compared.

CETP mRNA = test: Liver CETP mRNA in huApoB/huCETP/mLDLr mouse model for cardiovascular disease (Example 7); type: in vivo, human; details: huApoB+/−huCETP+/−mLDLr+/− mice (Groups B-E); ASO 25 mg/kg s.c. twice per week, nicotinic acid 2 g/kg/day s.c. + 1% in diet, 6 weeks; relative to PBS control (Group A)
Text: The saline-injected group served as the control group to which oligonucleotide-treated groups were compared. […] This group served a negative control for the effects of the antisense oligonucleotides against CETP. The groups are further described in Table 27, and are designated letters A-F, by which they will be referred from henceforth.

[2] = Plasma cholesterol and triglyceride levels in huApoB/huCETP/mLDLr mouse model (Example 7); type: in vivo, mice
Text: The huApoB^+/−huCETP^+/−mLDLr^+/− mice were divided into five groups of 5-7 mice each. […] The saline-injected group served as the control group to which oligonucleotide-treated groups were compared. […] This group served a negative control for the effects of the antisense oligonucleotides against CETP. The groups are further described in Table 27, and are designated letters A-F, by which they will be referred from henceforth.
HDL and LDL cholesterol were individually measured by HPLC. Triglyceride levels were measured on weeks 0, 3 and 6 with the use of a commercially available triglyceride kit (DCL Triglyceride Reagent; Diagnostic Chemicals Ltd.).

[3] = Plasma cholesterol and triglyceride levels, dose response (Example 9); type: in vivo, mice
Experimental: as §1
G. and Dyer, W. J. Can. J. Biochem. Physiol. 37: 911-917, 1959) and measured with an Olympus clinical analyzer (Hitachi Olympus AU400e, Melville, N.Y.). HDL and LDL cholesterol were individually measured by HPLC. Triglyceride levels were measured with the use of a commercially available triglyceride kit (DCL Triglyceride Reagent; Diagnostic Chemicals Ltd.). The results are presented in Tables 47-51 and are expressed in mg/dL.

[4] = huApoB+/−huCETP+/−mLDLr+/− mice (Groups B-E), ASO 25 mg/kg s.c. twice/week, Week 0
[5] = huApoB+/−huCETP+/−mLDLr+/− mice (Groups B-E), ASO 25 mg/kg s.c. twice/week, Week 3
[6] = huApoB+/−huCETP+/−mLDLr+/− mice (Groups B-E), ASO 25 mg/kg s.c. twice/week, Week 6
[7] = huApoB+/−huCETP−/−mLDLr+/− mice (Group F), 25 mg/kg s.c. twice/week, Week 0
[8] = huApoB+/−huCETP−/−mLDLr+/− mice (Group F), 25 mg/kg s.c. twice/week, Week 3
[9] = huApoB+/−huCETP−/−mLDLr+/− mice (Group F), 25 mg/kg s.c. twice/week, Week 6

In the case of “ISIS 349517: 5-10-5 MOE gapmer CAGCACTTTAATGCCAGTGG (sugars from the 5' end e5 d10 e5, backbone and methylation of C not given here)”, the “Percent inhibition of plasma CETP protein levels” value (CETP protein; Dose 1.5 mg/kg/wk) is reported as 58%, the “Percent inhibition of plasma CETP protein levels” value (CETP protein; Dose 5 mg/kg/wk) is reported as 74% and the “Percent inhibition of plasma CETP protein levels” value (CETP protein; Dose 15 mg/kg/wk) is reported as 81%. The “Percent inhibition of plasma CETP protein levels” value (CETP protein; Dose 50 mg/kg/wk) was 80%, the Kidney weight ([1]; Cholesterol chow) was 317 mg and the Liver weight ([1]; Cholesterol chow) was 1.8 g. It also gave a Spleen weight ([1]; Cholesterol chow) of 93 mg, a Kidney weight ([1]; Normal chow) of 279 mg and a Liver weight ([1]; Normal chow) of 1.6 g. The Spleen weight ([1]; Normal chow) was 113 mg, the “Percent inhibition of liver CETP mRNA expression” value (CETP mRNA) was 86% and the “% HDL/total cholesterol” value [2, 4] was 25%. It also gave an HDL cholesterol levels [2, 4] of 48 mg/dL, an LDL cholesterol levels [2, 4] of 116 mg/dL and a Total cholesterol levels [2, 4] of 193 mg/dL. For the same substance, the Triglyceride levels [2, 4] was 142 mg/dL, the “% HDL/total cholesterol” value [2, 5] was 40% and the HDL cholesterol levels [2, 5] was 68 mg/dL. The LDL cholesterol levels [2, 5] was 87 mg/dL, the Total cholesterol levels [2, 5] was 171 mg/dL and the Triglyceride levels [2, 5] was 177 mg/dL. For the same substance, the “% HDL/total cholesterol” value [2, 6] was 37%, the HDL cholesterol levels [2, 6] was 72 mg/dL and the LDL cholesterol levels [2, 6] was 109 mg/dL. The Total cholesterol levels [2, 6] was 197 mg/dL, the Triglyceride levels [2, 6] was 210 mg/dL and the “% HDL/total cholesterol” value [2, 7] was 41%. The HDL cholesterol levels [2, 7] was 65 mg/dL, the LDL cholesterol levels [2, 7] was 73 mg/dL and the Total cholesterol levels [2, 7] was 158 mg/dL. For the same substance, the Triglyceride levels [2, 7] was 150 mg/dL, the “% HDL/total cholesterol” value [2, 8] was 37% and the HDL cholesterol levels [2, 8] was 65 mg/dL. It also gave an LDL cholesterol levels [2, 8] of 91 mg/dL, a Total cholesterol levels [2, 8] of 175 mg/dL and a Triglyceride levels [2, 8] of 213 mg/dL. The “% HDL/total cholesterol” value [2, 9] was 42%, the HDL cholesterol levels [2, 9] was 75 mg/dL and the LDL cholesterol levels [2, 9] was 95 mg/dL. The Total cholesterol levels [2, 9] was 177 mg/dL, the Triglyceride levels [2, 9] was 201 mg/dL and the HDL cholesterol levels ([3]; 1.5 mg/kg/wk, Week 0) was 80 mg/dL. It also gave an LDL cholesterol levels ([3]; 1.5 mg/kg/wk, Week 0) of 58 mg/dL, a Total cholesterol levels ([3]; 1.5 mg/kg/wk, Week 0) of 154 mg/dL and a Triglyceride levels ([3]; 1.5 mg/kg/wk, Week 0) of 63 mg/dL. The “% change in HDL levels compared to total cholesterol” value (shortened to “% change in HDL levels”) ([3]; 1.5 mg/kg/wk, Week 3) was 12%, the HDL cholesterol levels ([3]; 1.5 mg/kg/wk, Week 3) was 117 mg/dL and the LDL cholesterol levels ([3]; 1.5 mg/kg/wk, Week 3) was 35 mg/dL. The Total cholesterol levels ([3]; 1.5 mg/kg/wk, Week 3) was 171 mg/dL, the Triglyceride levels ([3]; 1.5 mg/kg/wk, Week 3) was 50 mg/dL and the “% change in HDL levels” value ([3]; 1.5 mg/kg/wk, Week 6) was 24%. For the same substance, the HDL cholesterol levels ([3]; 1.5 mg/kg/wk, Week 6) was 132 mg/dL, the LDL cholesterol levels ([3]; 1.5 mg/kg/wk, Week 6) was 38 mg/dL and the Total cholesterol levels ([3]; 1.5 mg/kg/wk, Week 6) was 180 mg/dL. For the same substance, the Triglyceride levels ([3]; 1.5 mg/kg/wk, Week 6) was 91 mg/dL, the HDL cholesterol levels ([3]; 5 mg/kg/wk, Week 0) was 88 mg/dL and the LDL cholesterol levels ([3]; 5 mg/kg/wk, Week 0) was 62 mg/dL. For the same substance, the Total cholesterol levels ([3]; 5 mg/kg/wk, Week 0) was 164 mg/dL, the Triglyceride levels ([3]; 5 mg/kg/wk, Week 0) was 57 mg/dL and the “% change in HDL levels” value ([3]; 5 mg/kg/wk, Week 3) was 11%. For the same substance, the HDL cholesterol levels ([3]; 5 mg/kg/wk, Week 3) was 130 mg/dL, the LDL cholesterol levels ([3]; 5 mg/kg/wk, Week 3) was 31 mg/dL and the Total cholesterol levels ([3]; 5 mg/kg/wk, Week 3) was 172 mg/dL. For the same substance, the Triglyceride levels ([3]; 5 mg/kg/wk, Week 3) was 51 mg/dL, the “% change in HDL levels” value ([3]; 5 mg/kg/wk, Week 6) was 23% and the HDL cholesterol levels ([3]; 5 mg/kg/wk, Week 6) was 151 mg/dL. For the same substance, the LDL cholesterol levels ([3]; 5 mg/kg/wk, Week 6) was 36 mg/dL, the Total cholesterol levels ([3]; 5 mg/kg/wk, Week 6) was 202 mg/dL and the Triglyceride levels ([3]; 5 mg/kg/wk, Week 6) was 85 mg/dL. It also gave an HDL cholesterol levels ([3]; 15 mg/kg/wk, Week 0) of 86 mg/dL, an LDL cholesterol levels ([3]; 15 mg/kg/wk, Week 0) of 54 mg/dL and a Total cholesterol levels ([3]; 15 mg/kg/wk, Week 0) of 152 mg/dL. For the same substance, the Triglyceride levels ([3]; 15 mg/kg/wk, Week 0) was 47 mg/dL, the “% change in HDL levels” value ([3]; 15 mg/kg/wk, Week 3) was 26% and the HDL cholesterol levels ([3]; 15 mg/kg/wk, Week 3) was 141 mg/dL. For the same substance, the LDL cholesterol levels ([3]; 15 mg/kg/wk, Week 3) was 32 mg/dL, the Total cholesterol levels ([3]; 15 mg/kg/wk, Week 3) was 185 mg/dL and the Triglyceride levels ([3]; 15 mg/kg/wk, Week 3) was 48 mg/dL. For the same substance, the “% change in HDL levels” value ([3]; 15 mg/kg/wk, Week 6) was 42%, the HDL cholesterol levels ([3]; 15 mg/kg/wk, Week 6) was 164 mg/dL and the LDL cholesterol levels ([3]; 15 mg/kg/wk, Week 6) was 40 mg/dL. It also gave a Total cholesterol levels ([3]; 15 mg/kg/wk, Week 6) of 217 mg/dL, a Triglyceride levels ([3]; 15 mg/kg/wk, Week 6) of 85 mg/dL and an HDL cholesterol levels ([3]; 50 mg/kg/wk, Week 0) of 77 mg/dL. For the same substance, the LDL cholesterol levels ([3]; 50 mg/kg/wk, Week 0) was 59 mg/dL, the Total cholesterol levels ([3]; 50 mg/kg/wk, Week 0) was 145 mg/dL and the Triglyceride levels ([3]; 50 mg/kg/wk, Week 0) was 41 mg/dL. For the same substance, the “% change in HDL levels” value ([3]; 50 mg/kg/wk, Week 3) was 43%, the HDL cholesterol levels ([3]; 50 mg/kg/wk, Week 3) was 139 mg/dL and the LDL cholesterol levels ([3]; 50 mg/kg/wk, Week 3) was 33 mg/dL. For the same substance, the Total cholesterol levels ([3]; 50 mg/kg/wk, Week 3) was 184 mg/dL, the Triglyceride levels ([3]; 50 mg/kg/wk, Week 3) was 49 mg/dL and the “% change in HDL levels” value ([3]; 50 mg/kg/wk, Week 6) was 37%. It also gave an HDL cholesterol levels ([3]; 50 mg/kg/wk, Week 6) of 123 mg/dL, an LDL cholesterol levels ([3]; 50 mg/kg/wk, Week 6) of 38 mg/dL and a Total cholesterol levels ([3]; 50 mg/kg/wk, Week 6) of 170 mg/dL. It also gave a Triglyceride levels ([3]; 50 mg/kg/wk, Week 6) of 60 mg/dL.
